Data published in patent publication US6683029B1, “Halopyrimidines” (Bayer Aktiengesellschaft, priority 1999, dated 2004).

What was measured:
[1] = logP by HPLC (EEC Directive 79/831 Annex V. A8)
Plutella = Plutella test/synthetic feed; type: in vivo; settings: Plutella larvae on treated synthetic feed; concentration and time not stated
Description: Plutella Test/Synthetic Feed [table] […] A stated amount of the preparation of active compound of the desired concentration is pipetted onto a standardized amount of synthetic feed. After the methanol has evaporated, a film box lid covered with about 100 Plutella eggs is placed onto each cavity. The freshly hatched larvae migrate onto the treated synthetic feed. After the desired period of time, the kill in % is determined. 100% means that all animals have been killed; 0% means that none of the animals have been killed.

CON=C(C(=O)OC)c1ccccc1Oc1ncnc(Oc2cccc(F)c2)c1F [Example 1, Methyl 2-{2-[6-(3-fluorophenoxy)-5-fluoro-pyrimidin-4-yloxy]-phenyl}-2-methoxyiminoacetate]
chromatographic logP [1]: 3.46

CON=C(C(=O)OC)c1ccccc1Oc1ncnc(Oc2cc(Cl)ccc2Cl)c1F [Example 10]
activity (kill) (Plutella): good activity

CCSCc1ccccc1Oc1ncnc(Oc2ccccc2C(=NOC)C(=O)OC)c1F [Example 16]
logP ([1]; HPLC, gradient method, acetonitrile/0.1% aqueous phosphoric acid): 3.97
